# Where “and” joins values, the source holds several entries; their conditions need not be identical. Equal values may be shown once. Read-outs that look alike come from different tables or passages of the source.
# T1: Sulfolobus solfataricus SsoPox variant αsA1 (C258L/I261F/W263A), SEQ ID NO: 21 (Saccharolobus solfataricus, UniProt Q97VT7, C258L/I261F/W263A)
# T1 construct: made in house; host or cells: E. coli BL21(DE3)-pGro7/GroEL
# T1 sequence (Q97VT7 1-314 C258L/I261F/W263A): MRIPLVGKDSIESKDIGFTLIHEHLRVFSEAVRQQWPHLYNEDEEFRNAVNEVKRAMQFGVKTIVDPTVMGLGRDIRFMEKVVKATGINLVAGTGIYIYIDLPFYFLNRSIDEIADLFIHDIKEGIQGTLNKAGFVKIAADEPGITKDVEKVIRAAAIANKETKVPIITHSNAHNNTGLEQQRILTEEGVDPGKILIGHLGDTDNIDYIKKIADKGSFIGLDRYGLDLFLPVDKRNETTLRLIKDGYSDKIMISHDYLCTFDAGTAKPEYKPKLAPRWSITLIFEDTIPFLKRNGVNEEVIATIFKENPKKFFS
# What was measured:
# [1] = biological target: T2, Sulfolobus solfataricus SsoPox variant W263M, SEQ ID NO: 9 (Saccharolobus solfataricus, UniProt Q97VT7, W263M); type: biochemical
# T2 construct: made in house; host or cells: E. coli BL21(DE3)-pGro7/GroEL
# [2] = biological target: T3, Sulfolobus solfataricus SsoPox variant W263L, SEQ ID NO: 11 (Saccharolobus solfataricus, UniProt Q97VT7, W263L); type: biochemical
# T3 construct: made in house; host or cells: E. coli BL21(DE3)-pGro7/GroEL
# [3] = biological target: T4, Sulfolobus solfataricus SsoPox, wild type (wt), SEQ ID NO: 3 (Saccharolobus solfataricus, UniProt Q97VT7)
# [4] = biological target: T5, Sulfolobus solfataricus SsoPox variant W263F (of SEQ ID NO: 3) (Saccharolobus solfataricus, UniProt Q97VT7, W263F)
# [5] = biological target: T6, Sulfolobus solfataricus SsoPox variant W263I, SEQ ID NO: 15 (Saccharolobus solfataricus, UniProt Q97VT7, W263I)
# [6] = biological target: T7, Sulfolobus solfataricus SsoPox variant W263V, SEQ ID NO: 17 (Saccharolobus solfataricus, UniProt Q97VT7, W263V)
# [7] = biological target: T8, Sulfolobus solfataricus SsoPox variant W263T, SEQ ID NO: 19 (Saccharolobus solfataricus, UniProt Q97VT7, W263T)
# [8] = biological target: T9, Sulfolobus solfataricus SsoPox variant W263A, SEQ ID NO: 13 (Saccharolobus solfataricus, UniProt Q97VT7, W263A)
# [9] = biological target: T2, Sulfolobus solfataricus SsoPox variant W263M, SEQ ID NO: 9; type: biochemical; remark: listed apart in the source
# [10] = biological target: T3, Sulfolobus solfataricus SsoPox variant W263L, SEQ ID NO: 11; type: biochemical; remark: listed apart in the source
# [11] = biological target: T1, Sulfolobus solfataricus SsoPox variant αsA1 (C258L/I261F/W263A), SEQ ID NO: 21; type: biochemical; conditions: pH 8
# [12] = biological target: T4, Sulfolobus solfataricus SsoPox, wild type (wt), SEQ ID NO: 3; type: biochemical; parameters: made in house; host or cells: E. coli BL21(DE3)-pGro7/GroEL
# [13] = biological target: T5, Sulfolobus solfataricus SsoPox variant W263F (of SEQ ID NO: 3); type: biochemical; parameters: made in house; host or cells: E. coli BL21(DE3)-pGro7/GroEL
# [14] = biological target: T6, Sulfolobus solfataricus SsoPox variant W263I, SEQ ID NO: 15; type: biochemical; parameters: made in house; host or cells: E. coli BL21(DE3)-pGro7/GroEL
# [15] = biological target: T7, Sulfolobus solfataricus SsoPox variant W263V, SEQ ID NO: 17; type: biochemical; parameters: made in house; host or cells: E. coli BL21(DE3)-pGro7/GroEL
# [16] = biological target: T8, Sulfolobus solfataricus SsoPox variant W263T, SEQ ID NO: 19; type: biochemical; parameters: made in house; host or cells: E. coli BL21(DE3)-pGro7/GroEL
# [17] = biological target: T9, Sulfolobus solfataricus SsoPox variant W263A, SEQ ID NO: 13; type: biochemical; parameters: made in house; host or cells: E. coli BL21(DE3)-pGro7/GroEL
# [18] = biological target: T4, Sulfolobus solfataricus SsoPox, wild type (wt), SEQ ID NO: 3; parameters: made in house; host or cells: E. coli BL21(DE3)-pGro7/GroEL; conditions: cited from earlier work
# 3-oxo-C12 AHL = type: cell-based, Pseudomonas aeruginosa
# [19] = type: physicochemical; conditions: pH 8
molecule,measurement,setting,value
CCCCCCCCCC(=O)CC(=O)N[C@H]1CCOC1=O [3-oxo-C12 AHL],Enhancement/wt,[1],0
same,ability to hydrolyse,[1],lost the ability to hydrolyse
same,Enhancement/wt,[2],0
same,ability to hydrolyse,[2],lost the ability to hydrolyse
same,Enhancement/wt,[3],1
same,kcat/KM,[3],2.96(±0.99)×10^3 M^−1s^−1
same,Enhancement/wt,[4],1.5 and 1.3 ± 0.5
same,kcat,[4]; pH 8.3,0.41 ± 0.02 s⁻¹
same,kcat/KM,[4]; pH 8.3,2.81(±0.65) × 10^3 M^−1s^−1
same,Enhancement/wt,[5],54.7 and 45.5 ± 18.8
same,kcat,[5]; pH 8.3,1.80 ± 0.05 s⁻¹
same,Enhancement/wt,[6],65.8 and 54.5 ± 20.4
same,kcat,[6]; pH 8.3,3.00 ± 0.07 s⁻¹
same,kcat/KM,[6]; pH 8.3,1.21(±0.26) × 10^5 M^−1s^−1
same,Enhancement/wt,[7],25.6 and 21.2 ± 7.2
same,kcat,[7]; pH 8.3,6.44 ± 0.22 s⁻¹
same,kcat/KM,[7]; pH 8.3,4.70(±0.67) × 10^4 M^−1s^−1
same,Enhancement/wt,[8],0.42
same,ability to hydrolyse,[8],lost the ability to hydrolyse
"CCOP(=O)(OCC)Oc1ccc([N+](=O)[O-])cc1 [Paraoxon, paraoxon]",Enhancement/wt,[9],14.1
same,Km,[9]; pH 8,931 ± 163 µM
same,kcat,[9]; pH 8,6.82 ± 0.57 s⁻¹
same,kcat/KM,[9]; pH 8,7.33(±1.9) × 10^3 M^−1s^−1
same,Enhancement/wt,[10],4.6
same,catalytic efficiency improvement induced by SDS,[10],19.8 times
same,kcat,[10],3.17 ± 0.18 s⁻¹ and 3.13 ± 0.25 s⁻¹
same,kcat/KM,[10]; pH 8,2.37(±0.33) × 10^3 M^−1s^−1
same,Catalytic activity,[11],3.37(±0.94) · 10^4 M^−1s^−1
same,Enhancement/wt,[12],1
same,catalytic efficiency improvement induced by SDS,[12],12.4 times
same,Enhancement/wt,[13],23.3
same,Km,[13]; pH 8,700 ± 146 µM
same,kcat,[13]; pH 8,8.47 ± 0.53 s⁻¹
same,kcat/KM,[13]; pH 8,1.21(±0.33)×10^4 M^−1s^−1
same,Enhancement/wt,[14],2.3
same,kcat/KM,[14]; pH 8,1.21(±0.59) × 10^3 M^−1s^−1
same,Enhancement/wt,[15],1.7
same,kcat/KM,[15]; pH 8,8.83(±0.3) × 10^2 M^−1s^−1
same,Enhancement/wt,[16],2.0
same,kcat/KM,[16]; pH 8,1.06(±0.03) × 10^3 M^−1s^−1
same,Enhancement/wt,[17],6.8
same,Km,[17]; pH 8,1490 ± 351 µM
same,kcat,[17]; pH 8,5.29 ± 0.69 s⁻¹
same,kcat/KM,[17]; pH 8,3.55(±1.30)×10^3 M^−1s^−1
same,kcat/KM,[18],6.41(±1.51)×10^3 M^−1s^−1
same,Catalytic activity,[18]; pH 8,5.19(±1.31) · 10^2 M^−1s^−1
same,Km,[18]; pH 8,24300 ± 3720 µM
same,kcat,[18]; pH 8,12.59 ± 1.26 s⁻¹
same,kcat/KM,[18]; pH 8,5.19(±1.31) × 10^2 M^−1s^−1
"SsoPox W263A: SEQ ID NO: 3 with substitution of tryptophan W in position 263 by alanine A (protein, listed as Sulfolobus solfataricus) MRIPLVGKDSIESKDIGFTLIHEHLRVFSEAVRQQWPHLYNEDEEFRNAVNEVKRAMQFGVKTIVDPTVMGLGRDIRFMEKVVKATGINLVAGTGIYIYIDLPFYFLNRSIDEIADLFIHDIKEGIQGTLNKAGFVKIAADEPGITKDVEKVIRAAAIANKETKVPIITHSNAHNNTGLEQQRILTEEGVDPGKILIGHLGDTDNIDYIKKIADKGSFIGLDRYGLDLFLPVDKRNETTLRLIKDGYSDKIMISHDYCCTIDAGTAKPEYKPKLAPRWSITLIFEDTIPFLKRNGVNEEVIATIFKENPKKFFS",relative lactonase activity in screening (3-oxo-C12 AHL hydrolysis),3-oxo-C12 AHL,selected for a potential lactonase activity improvement
"SsoPox W263T: SEQ ID NO: 3 with substitution of tryptophan W in position 263 by threonine T (protein, listed as Sulfolobus solfataricus) MRIPLVGKDSIESKDIGFTLIHEHLRVFSEAVRQQWPHLYNEDEEFRNAVNEVKRAMQFGVKTIVDPTVMGLGRDIRFMEKVVKATGINLVAGTGIYIYIDLPFYFLNRSIDEIADLFIHDIKEGIQGTLNKAGFVKIAADEPGITKDVEKVIRAAAIANKETKVPIITHSNAHNNTGLEQQRILTEEGVDPGKILIGHLGDTDNIDYIKKIADKGSFIGLDRYGLDLFLPVDKRNETTLRLIKDGYSDKIMISHDYCCTIDTGTAKPEYKPKLAPRWSITLIFEDTIPFLKRNGVNEEVIATIFKENPKKFFS",relative lactonase activity in screening (3-oxo-C12 AHL hydrolysis),3-oxo-C12 AHL,selected for a potential lactonase activity improvement
same,melting temperature,[19],89.2±0.4 °C
"SsoPox W263V: SEQ ID NO: 3 with substitution of tryptophan W in position 263 by valine V (protein, listed as Sulfolobus solfataricus) MRIPLVGKDSIESKDIGFTLIHEHLRVFSEAVRQQWPHLYNEDEEFRNAVNEVKRAMQFGVKTIVDPTVMGLGRDIRFMEKVVKATGINLVAGTGIYIYIDLPFYFLNRSIDEIADLFIHDIKEGIQGTLNKAGFVKIAADEPGITKDVEKVIRAAAIANKETKVPIITHSNAHNNTGLEQQRILTEEGVDPGKILIGHLGDTDNIDYIKKIADKGSFIGLDRYGLDLFLPVDKRNETTLRLIKDGYSDKIMISHDYCCTIDVGTAKPEYKPKLAPRWSITLIFEDTIPFLKRNGVNEEVIATIFKENPKKFFS",relative lactonase activity in screening (3-oxo-C12 AHL hydrolysis),3-oxo-C12 AHL,selected for a potential lactonase activity improvement
same,melting temperature,[19],84.1±1.6 °C
